Measured values from patent US20040121021A1, “Determination of adequate ozone disinfection” (priority 2002, published 2004).
One block for each compound: values may come before it.

Test: Bleaching of dye-impregnated filter paper strips in flowing ozonated water
Type: physicochemical
Description: Each kind of indicator-impregnated substrate, or Ct strip, must be tested to empirically determine the Ct value range most suitable for that particular combination of indicator and substrate. To empirically determine the Ct value range for a Ct strip having a particular indicator impregnated onto a particular substrate having particular properties, the particular Ct strip is exposed to known concentrations of ozone over incremental periods of time. The resulting color of the substrate is recorded after given increments of time until the color is entirely bleached out or until a maximum desired exposure time has passed. The color of the Ct strip, after each time increment of immersion in a known concentration of ozone, is an accurate measure of the Ct value for an exposed surface. The resulting colors are recorded for comparison use, as on a color chart, for that particular combination of indicator and substrate. Strips of filter paper ½″×2″ were cut and immersed in a 1000 ppm solution of Solvent Green 3 (1,4-bis[(4-methylphenyl)amino]-9,10-anthracenedione) in acetone for 5 seconds at room temperature. When dyed in this manner, strips were initially an extremely dark green and dried to a medium green color. When submerged in a flowing bath of 3 ppm ozone dissolved in water, bleaching was observed. […] Strips of filter paper ½″×2″ were cut and immersed in a 1000 ppm solution of Solvent Red 23 in acetone for 5 seconds at room temperature. When submerged in a flowing bath of 5 ppm ozone dissolved in water, bleaching was observed. […] Strips of filter paper ½″×2″ were cut and immersed in a 1000 ppm solution of Solvent Violet 13 in acetone for 5 seconds at room temperature. When submerged in a flowing bath of 5 ppm ozone dissolved in water, bleaching was observed. […] Strips of filter paper ½″×2″ were cut and immersed in a 500 ppm solution of Solvent Yellow 33 in acetone for 5 seconds at room temperature. When submerged in a flowing bath of 6 ppm ozone dissolved in water, bleaching was observed.

color loss (filter paper strip dyed in 1000 ppm Solvent Red 23 solution in acetone, flowing bath of 5 ppm ozone dissolved in water, after 90 minutes): ~30%
SMILES: Oc1ccc2ccccc2c1N=Nc1ccc(N=Nc2ccccc2)cc1 [Solvent Red 23]

color loss (filter paper strip dyed in 1000 ppm Solvent Red 23 solution in acetone, flowing bath of 5 ppm ozone dissolved in water, after 240 minutes): ~75%
SMILES: Cc1ccc(Nc2ccc(O)c3c2C(=O)c2ccccc2C3=O)cc1 [Solvent Violet 13]

color loss (filter paper strip dyed in 1000 ppm solution in acetone, flowing bath of 3 ppm ozone dissolved in water, after 90 minutes): ~40%
SMILES: Cc1ccc(Nc2ccc(Nc3ccc(C)cc3)c3c2C(=O)c2ccccc2C3=O)cc1 [Solvent Green 3, 1,4-bis[(4-methylphenyl)amino]-9,10-anthracenedione]

color loss (filter paper strip dyed in 500 ppm solution in acetone, flowing bath of 6 ppm ozone dissolved in water, after 20 minutes): complete color loss
SMILES: O=C1c2ccccc2C(=O)C1c1ccc2ccccc2n1 [Solvent Yellow 33]
